How the values were obtained:
Test in all cases: relative viability (nuclei count vs DMSO), 5 days (fraction); higher = more cells survive
MLN4924 + Trametinib = compound: NS(=O)(=O)OC[C@@H]1C[C@@H](n2ccc3c(N[C@H]4CCc5ccccc54)ncnc32)C[C@@H]1O [MLN4924] + CC(=O)Nc1cccc(-n2c(=O)n(C3CC3)c(=O)c3c(Nc4ccc(I)cc4F)n(C)c(=O)c(C)c32)c1 [Trametinib] (partner 0.02 µM)
Procedure, shortened: (§1)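 One day after seeding in 1536-well plates, lung cancer cell lines were dosed by pin tool. Dosing was either single-drug or a fixed anchor-drug dose plus five library-drug doses (not always all listed) in √10 steps. After 5 days, nuclei were stained in one fix-and-stain step and counted on 4× images, and relative viability is the nuclei count of treated wells over that of vehicle wells, given as the median of duplicate plates.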

MLN4924 + Crizotinib = compound: NS(=O)(=O)OC[C@@H]1C[C@@H](n2ccc3c(N[C@H]4CCc5ccccc54)ncnc32)C[C@@H]1O [MLN4924] + C[C@@H](Oc1cc(-c2cnn(C3CCNCC3)c2)cnc1N)c1c(Cl)ccc(F)c1Cl [Crizotinib] (partner 1 µM)
Procedure, shortened: as §1

Carboplatin + Lapatinib = compound: C1CC(C1)(C(=O)O)C(=O)O.[NH2-].[NH2-].[Pt+2] [Carboplatin] + CS(=O)(=O)CCNCc1ccc(-c2ccc3ncnc(Nc4ccc(OCc5cccc(F)c5)c(Cl)c4)c3c2)o1 [Lapatinib] (partner 2 µM)
Procedure, shortened: as §1

MLN4924 + Palbociclib = compound: NS(=O)(=O)OC[C@@H]1C[C@@H](n2ccc3c(N[C@H]4CCc5ccccc54)ncnc32)C[C@@H]1O [MLN4924] + CC(=O)c1c(C)c2cnc(Nc3ccc(N4CCNCC4)cn3)nc2n(C2CCCC2)c1=O [Palbociclib] (partner 0.5 µM)
Procedure, shortened: as §1

Row | Cell Line | relative viability (MLN4924 + Trametinib; first compound 0.04 µM) | relative viability (MLN4924 + Trametinib; first compound 0.1265 µM) | relative viability (MLN4924 + Trametinib; first compound 0.4 µM) | relative viability (MLN4924 + Trametinib; first compound 1.265 µM) | relative viability (MLN4924 + Trametinib; first compound 4 µM) | relative viability (MLN4924 + Crizotinib; first compound 0.04 µM) | relative viability (MLN4924 + Crizotinib; first compound 0.1265 µM) | relative viability (MLN4924 + Crizotinib; first compound 0.4 µM) | relative viability (MLN4924 + Crizotinib; first compound 1.265 µM) | relative viability (MLN4924 + Crizotinib; first compound 4 µM) | relative viability (Carboplatin + Lapatinib; first compound 0.08 µM) | relative viability (Carboplatin + Lapatinib; first compound 0.253 µM) | relative viability (Carboplatin + Lapatinib; first compound 0.8 µM) | relative viability (Carboplatin + Lapatinib; first compound 2.53 µM) | relative viability (Carboplatin + Lapatinib; first compound 8 µM) | relative viability (MLN4924 + Palbociclib; first compound 0.04 µM) | relative viability (MLN4924 + Palbociclib; first compound 0.1265 µM) | relative viability (MLN4924 + Palbociclib; first compound 0.4 µM) | relative viability (MLN4924 + Palbociclib; first compound 1.265 µM) | relative viability (MLN4924 + Palbociclib; first compound 4 µM)
1 | NCI-H661 | 0.714 | 0.712 | 0.475 | 0.277 | 0.353 | 0.735 | 0.721 | 0.602 | 0.462 | 0.396 | 0.649 | 0.511 | 0.331 | 0.369 | 0.459 | 0.421 | 0.427 | 0.34 | 0.292 | 0.366
2 | NCI-H727 | 0.442 | 0.454 | 0.403 | 0.358 | 0.365 | 0.672 | 0.274 | 0.266 | 0.274 | 0.222 | 0.998 | 0.782 | 0.85 | 0.745 | 0.448 | 0.681 | 0.584 | 0.566 | 0.476 | 0.535
3 | NCI-H1734 | 0.705 | 0.715 | 0.181 | 0.123 | 0.126 | 0.688 | 0.622 | 0.305 | 0.121 | 0.131 | 1.01 | 1.07 | 1.06 | 1.01 | 0.833 | 0.372 | 0.341 | 0.272 | 0.14 | 0.146
4 | EMC-BAC-2 | 0.762 | 0.589 | 0.466 | 0.324 | 0.35 | 0.601 | 0.283 | 0.242 | 0.164 | 0.167 | 0.883 | 0.886 | 0.924 | 0.837 | 0.88 | 0.559 | 0.431 | 0.386 | 0.265 | 0.312
5 | EKVX | 0.314 | 0.349 | 0.319 | 0.244 | 0.193 | 0.865 | 0.654 | 0.461 | 0.226 | 0.133 | 0.21 | 0.2 | 0.217 | 0.191 | 0.218 | 0.389 | 0.362 | 0.334 | 0.188 | 0.142
6 | NCI-H358 | 0.167 | 0.137 | 0.138 | 0.115 | 0.0882 | 0.69 | 0.506 | 0.285 | 0.168 | 0.156 | 0.483 | 0.474 | 0.538 | 0.485 | 0.543 | 0.127 | 0.16 | 0.115 | 0.0864 | 0.0788
7 | LOU-NH91 | 0.775 | 0.853 | 0.731 | 0.575 | 0.525 | 0.706 | 0.743 | 0.652 | 0.489 | 0.398 | 0.84 | 0.755 | 0.838 | 0.819 | 0.735 | 0.494 | 0.521 | 0.532 | 0.426 | 0.413
8 | NCI-H1437 | 0.547 | 0.483 | 0.502 | 0.226 | 0.218 | 0.854 | 0.77 | 0.626 | 0.336 | 0.164 | 0.869 | 0.832 | 0.838 | 0.887 | 0.641 | 0.292 | 0.321 | 0.228 | 0.187 | 0.134
9 | H3255 | 0.591 | 0.53 | 0.409 | 0.304 | 0.306 | 0.77 | 0.668 | 0.341 | 0.242 | 0.247 | 0.276 | 0.248 | 0.269 | 0.257 | 0.236 | 0.299 | 0.283 | 0.259 | 0.308 | 0.274
10 | NCI-H1666 | 0.762 | 0.601 | 0.615 | 0.429 | 0.51 | 1.18 | 0.669 | 0.306 | 0.25 | 0.236 | 0.662 | 0.665 | 0.578 | 0.498 | 0.468 | 0.553 | 0.549 | 0.693 | 0.492 | 0.46
11 | NCI-H2228 | 0.537 | 0.496 | 0.255 | 0.168 | 0.125 |  | 0.443 | 0.4 | 0.192 | 0.226 | 1.61 | 0.939 | 1.01 | 0.868 | 0.616 | 0.743 | 0.891 | 0.277 | 0.188 | 0.13
12 | HCC-78 | 0.798 | 0.509 | 1.13 | 0.268 | 0.243 | 0.394 | 0.451 | 0.739 | 0.159 | 0.172 | 0.867 | 0.833 | 0.971 | 0.875 | 0.631 | 0.52 | 0.462 | 0.472 | 0.422 | 0.418
13 | CAL-12T | 0.373 | 0.371 | 0.269 | 0.279 | 0.158 | 0.638 | 0.665 | 0.284 | 0.248 | 0.134 | 0.754 | 0.624 | 0.749 | 0.755 | 0.639 | 0.403 | 0.254 | 0.161 | 0.122 | 0.182
14 | SK-LU-1 | 0.556 | 0.652 | 0.347 | 0.269 | 0.234 | 0.951 | 0.802 | 0.236 | 0.182 | 0.201 | 0.99 | 1.01 | 0.766 | 0.797 | 0.735 | 0.467 | 0.43 | 0.253 | 0.195 | 0.202
15 | LU99A | 0.493 | 0.342 | 0.291 | 0.172 | 0.146 | 0.555 | 0.359 | 0.351 | 0.16 | 0.151 | 0.988 | 1.04 | 1.01 | 0.917 | 0.795 | 0.414 | 0.333 | 0.318 | 0.163 | 0.125
16 | RERF-LC-KJ | 0.8 | 0.66 | 0.365 | 0.215 | 0.203 | 0.786 | 0.471 | 0.225 | 0.221 | 0.207 | 0.854 | 0.838 | 0.822 | 0.841 | 0.726 | 0.875 | 0.363 | 0.184 | 0.152 | 0.218

Reference: the supplement of paper PMC10307832
